Laboratory results as given in US20210393655A1, “Vesicular Formulations for Use in the Treatment of Pain or Reduced Mobility of a Joint” (Sequessome Technology Holdings Limited, priority 2012, published 2021).

Key:
Assay type in all cases: in vivo, human
[1] = tested on: patients with osteoarthritis of the knee; test: Clinical trial CL-033-III-03: WOMAC pain subscale
Procedure: (§1) Six clinical trials were conducted with Formulation X on patients with osteoarthritis of the knee. One efficacy measure was the change from baseline to the end of the study in patients' perception of joint stiffness and physical function. In studies CL-033-III-03 and CL-033-III-06, joint stiffness was assessed using two single items describing the severity of stiffness, both of which were measured using an 11-point numerical rating (NRS) on the stiffness subscale of the Western Ontario and McMaster Universities (WOMAC) Osteoarthritis Index (version 3.1) instrument. A measure of physical function was performed in all six studies using the WOMAC Osteoarthritis Index (version 3.1), which consisted of 17 single items describing the difficulty in performing daily activities. Each item was rated on a VAS or an 11-point numerical scale.
Pain, joint mobility and physical function outcomes were compared in study CL-033-III-03.

[2] = tested on: patients with osteoarthritis of the knee; test: Clinical trials in osteoarthritis of the knee: WOMAC physical function subscale
Procedure: as §1, with “One” for “Six clinical trials were conducted with Formulation X on patients with osteoarthritis of the knee. One”

[3] = tested on: patients with osteoarthritis of the knee; test: Clinical trials in osteoarthritis of the knee: WOMAC stiffness subscale; details: study CL-033-III-03; end of 3 month treatment
Procedure: as §1

[4] = oral celecoxib 100 mg b.i.d. (n = 233), 3 months, CL-033-III-03
[5] = study CL-033-III-03, end of 3 month treatment

## Cc1ccc(-c2cc(C(F)(F)F)nn2-c2ccc(S(N)(=O)=O)cc2)cc1 [celecoxib]
[1]; [4]
  Effect size versus oral placebo (Mann-Whitney estimator, MW), WOMAC pain subscale score: MW = 0.5873
[1]; [5]
  Reduction in joint pain (WOMAC pain): 40.4%
[2]; [4]
  Effect size versus oral placebo (Mann-Whitney estimator, MW), WOMAC function subscale score: MW = 0.5949
[2]; [5]
  Improvement in physical function (WOMAC function): 38.2%
[3]
  Reduction in stiffness (WOMAC stiffness): 37.9%
